Assays:
[1] = target: T1, PSMA (Homo sapiens, UniProt Q04609); test: in vitro competitive cell binding assay on LNCaP cells against 68Ga-labeled [Glu-urea-Lys(Ahx)]2-HBED-CC; details: 12 concentrations of analyte 0-5000 nM, mean of three experiments
T1 construct: host or cells: LNCaP cells
Procedure: (§1) The competitive cell binding assay and internalization experiments were performed as described previously (Eder et al. 2012). Briefly, the respective cells (10^5 per well) were incubated with the radiometal (^68Ga-labeled [Glu-urea-Lys(Ahx)]2-HBED-CC (Schafer et al. 2012)) in the presence of 12 different concentrations of analyte (0-5000 nM, 100 μL/well). After incubation, washing was carried out using a multiscreen vacuum manifold (Millipore, Billerica, Mass.). Cell-bound radioactivity was measured using a gamma counter (Packard Cobra II, GMI, Minnesota, USA). The 50% inhibitory concentration (IC50) was calculated by fitting the data using a nonlinear regression algorithm (GraphPad Software). Experiments were performed three times.
as §1, with “al.,” for “al.”, “radioligand” for “radiometal”, “(Schäfer” for “(Schafer”, “The 50% inhibitory concentration (IC50) was calculated by fitting the data using a nonlinear regression algorithm (GraphPad Software). Experiments were performed three times.” left out

[2] = tested on: LNCaP tumor; test: comparative PET imaging of 68Ga-labeled PSMA-HBED-CC conjugates; format: in vivo; details: 1 hour post injection, LNCaP tumor-bearing nude mice
Procedure: The ^68Ga-labeled compounds PSMA-HBED-CC-FITC (the compound depicted above), PSMA-Ahx-HBED-CC-cyanine 5.5 (the compound depicted above, of which the mass was determined by mass spectrometry as being M(calculated)=1642.98; M(found)=1642.7) and PSMA-Ahx-HBED-CC (the corresponding compound without cyanine 5.5) and were injected into an LNCaP tumor-bearing nude mice. One hour post injection, […] was performed.

[3] = tested on: PSMA positive LNCaP tumors; test: organ distribution in LNCaP tumor bearing xenografts; format: in vivo, BALB/c nu/nu mice; details: 68Ga-labeled, 1 h post injection; for Organ distribution, Blood, Mean / Organ distribution, Brain, Mean / Organ distribution, Heart, Mean / Organ distribution, Intestine, Mean / Organ distribution, Kidney, Mean / Organ distribution, Liver, Mean / Organ distribution, Lung, Mean / Organ distribution, Muscle, Mean / Organ distribution, Spleen, Mean / Organ distribution, Tumor (tumor uptake), Mean: 0.06 nmol, tail vein, n=3; for distribution profile in healthy organs: both compounds compared with each other; for Organ distribution, Tumor (tumor uptake), Mean: PSMA positive LNCaP tumors
Procedure: 7- to 8-week-old male BALB/c nu/nu mice (Charles River Laboratories) were subcutaneously inoculated into the right trunk with 5×10^6 cells of LNCaP (in 50% Matrigel; Becton Dickinson, Heidelberg, Germany). The tumors were allowed to grow until approximately 1 cm^3 in size. The radiolabeled compounds were injected into the tail vein (approx. 1 MBq per mouse; 0.06 nmol). At 1 h after injection the animals were sacrificed. Organs of interest were dissected, blotted dry, and weighed. The radioactivity was measured using a gamma counter and calculated as % ID/g.

[4] = tested on: LNCaP cells; test: specific cell uptake, cell surface binding and internalization; format: cell-based, human; details: 68Ga-labeled
Procedure: To determine the specific cell uptake and internalization, 10^5 cells were seeded in poly-L-lysine coated 24-well cell culture plates 24 h before incubation. After washing, the cells were incubated with 25 nM of the radiolabeled compounds for 45 min at 37° C. and at 4° C., respectively. Specific cellular uptake was determined by competitive blocking with 2-(phosphonomethyl)pentanedioic acid (500 μM final concentration, PMPA, Axxora, Loerrach, Germany). Cellular uptake was terminated by washing 4 times with 1 mL of ice-cold PBS. Cells were subsequently incubated twice with 0.5 mL glycine-HCl in PBS (50 mM, pH=2.8) for 5 min to remove the surface-bound fraction. The cells were washed with 1 mL of ice-cold PBS and lysed using 0.3 N NaOH (0.5 mL). The surface-bound and the internalized fractions were measured in a gamma counter. The cell uptake was calculated as percent of the initially added radioactivity bound to 10^6 cells [% ID/10^6 cells].

[5] = tested on: LNCaP tumor; test: comparative organ distribution versus Banerjee reference compounds; format: in vivo; details: 1 hour post injection, LNCaP tumor-bearing nude mice
Procedure: PSMA-Ahx-HBED-CC-FITC (as shown above) was compared with a reference compound published by Banerjee et al. (Banerjee et al., 2011, Angew Chem Int Ed Engl. 50(39):9167-9170, page 6, scheme 1, final product) and the corresponding compound without the fluorescent dye IRDye800CW bearing a free amino group of the lysyl moiety the dye IRDye800CW can be bound to. These compounds were injected into LNCaP tumor-bearing nude mice.

T1 sequence (Q04609 whole entry): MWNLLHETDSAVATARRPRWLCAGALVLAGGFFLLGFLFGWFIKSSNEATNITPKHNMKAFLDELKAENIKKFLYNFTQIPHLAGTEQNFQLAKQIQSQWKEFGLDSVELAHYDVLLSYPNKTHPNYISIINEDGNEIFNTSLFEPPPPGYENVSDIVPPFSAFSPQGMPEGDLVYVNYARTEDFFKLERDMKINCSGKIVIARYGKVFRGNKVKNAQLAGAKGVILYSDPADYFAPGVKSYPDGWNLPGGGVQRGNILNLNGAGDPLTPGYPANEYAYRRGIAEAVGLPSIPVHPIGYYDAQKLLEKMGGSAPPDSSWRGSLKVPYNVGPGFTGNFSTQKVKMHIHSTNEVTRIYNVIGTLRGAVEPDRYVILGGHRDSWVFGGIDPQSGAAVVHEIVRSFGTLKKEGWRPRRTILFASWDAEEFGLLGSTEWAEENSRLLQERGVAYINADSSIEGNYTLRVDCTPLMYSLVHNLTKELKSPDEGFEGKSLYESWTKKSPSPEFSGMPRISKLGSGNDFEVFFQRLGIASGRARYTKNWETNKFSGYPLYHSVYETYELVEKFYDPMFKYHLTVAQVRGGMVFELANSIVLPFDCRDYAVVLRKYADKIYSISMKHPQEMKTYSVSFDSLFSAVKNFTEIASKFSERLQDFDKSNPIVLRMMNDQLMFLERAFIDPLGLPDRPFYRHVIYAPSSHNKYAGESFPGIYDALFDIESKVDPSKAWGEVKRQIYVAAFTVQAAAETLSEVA

Row | Organ distribution, Tumor (tumor uptake), Mean ([3]; listed as Glu-urea-Lys-HBED-CC-dye) [% ID/g] | tumor uptake versus Banerjee reference compounds [5] | Compound | IC50 [1] [nM] | distribution of radioactivity and tumor uptake (PET imaging) [2] | Organ distribution, Blood, Mean [3] [% ID/g] | Organ distribution, Brain, Mean [3] [% ID/g] | Organ distribution, Heart, Mean [3] [% ID/g] | Organ distribution, Intestine, Mean [3] [% ID/g] | Organ distribution, Kidney, Mean [3] [% ID/g] | Organ distribution, Liver, Mean [3] [% ID/g] | Organ distribution, Lung, Mean [3] [% ID/g] | Organ distribution, Muscle, Mean [3] [% ID/g] | Organ distribution, Spleen, Mean [3] [% ID/g] | distribution profile in healthy organs [3] | Organ distribution, Tumor (tumor uptake), Mean [3] [% ID/g] | Organ distribution, Tumor (tumor uptake), Mean ([3]; listed as Glu-urea-Lys-HBED-CC) [% ID/g] | internalization by LNCaP cells ([4]; 25 nM, 45 min, competitive blocking with 500 μM 2-PMPA (P<0.001)) | cell uptake and internalization profile versus Glu-urea-Lys-HBED-CC ([4]; LNCaP cells)
1 | – | – | O=C(O)CCc1ccc(O)c(CN(CCN(CC(=O)O)Cc2cc(CCC(=O)NCCCCCC(=O)NCCCC[C@H](NC(=O)N[C@@H](CCC(=O)O)C(=O)O)C(=O)O)ccc2O)CC(=O)O)c1 [Glu-urea-Lys(Ahx)-HBED-CC, reference compound] | 9.82 ± 1.26 | comparable distribution of radioactivity and tumor uptake | 0.53 | 0.40 | 0.83 | 1.14 | 139.44 | 1.43 | 2.36 | 1.00 | 17.88 | comparable | 4.89±1.34 | 4.89 | – | –
2 | 10.86 | – | O=C(O)CCC(NC(=O)NC(CCCCNC(=O)CCc1ccc(O)c(CN(CCN(CC(=O)O)Cc2cc(CCC(=O)NCCOCCOCCNC(=S)Nc3ccc4c(c3)C(=O)OC43c4ccc(O)cc4Oc4cc(O)ccc43)ccc2O)CC(=O)O)c1)C(=O)O)C(=O)O (centres unmarked) [Glu-urea-Lys-HBED-CC-Fluorescein] | 11.1 ± 1.16 | comparable distribution of radioactivity and tumor uptake | 1.34 | 0.31 | 2.22 | 0.81 | 138.18 | 1.71 | 3.09 | 1.84 | 45.24 | comparable | 10.86±0.94 | – | specifically internalized | not considerably changed
3 | – | significantly improved | O=C(O)CCC(NC(=O)NC(CCCCNC(=O)CCCCCNC(=O)CCc1ccc(O)c(CN(CCN(CC(=O)O)Cc2cc(CCC(=O)NCCOCCOCCNC(=S)Nc3ccc4c(c3)C(=O)OC43c4ccc(O)cc4OC4C=C(O)C=CC43)ccc2O)CC(=O)O)c1)C(=O)O)C(=O)O (centres unmarked) [PSMA-Ahx-HBED-CC-FITC] | – | – | – | – | – | – | – | – | – | – | – | – | – | – | – | –
4 | – | – | CN1/C(=C/C=C/C=C/C2=[N+](CCCCCC(=O)NCCOCCOCCNC(=O)CCc3ccc(O)c(CN(CCN(CC(=O)O)Cc4cc(CCC(=O)NCCCCCC(=O)NCCCCC(NC(=O)NC(CCC(=O)O)C(=O)O)C(=O)O)ccc4O)CC(=O)O)c3)c3ccc4ccccc4c3C2(C)C)C(C)(C)c2c1ccc1ccccc21 (centres unmarked) [PSMA-Ahx-HBED-CC-cyanine 5.5] | – | comparable distribution of radioactivity and tumor uptake | – | – | – | – | – | – | – | – | – | – | – | – | – | –

— patent US10406246B2, “Double-labeled probe for molecular imaging and use thereof” (DEUTSCHES KREBSFORSCHUNGSZENTRUM, priority 2013, dated 2019)
